Data published in PubChem BioAssay AID1259411 (Chemical Carcinogenesis Research Information System (CCRIS), 2018).
Calls of active or inactive are those of the source. The rule behind the calls is not given here.

Test system: rodent carcinogenicity bioassays, tumor incidence
Test: CCRIS carcinogenicity studies
Method in brief: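 Archive of carcinogenicity, mutagenicity, tumor promotion and tumor inhibition results drawn from journals, NCI reports and other sources, expert-reviewed; covers 1985-2011 and is no longer updated.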

## CC1=C(C(=O)Nc2ccccc2)SCCO1
Species: Mouse, Strain/Sex: Charles River/Female (50 per group in experimental animals; 75 controls), Route: Oral, Dose: 0, 50, 2,500, 5,000 ppm in diet for 19 mo, Dose: 0, 50, 2,500, 5,000 ppm in diet for 19 mo
  carcinogen call: inactive; negative (purity >99%; study details not given in source)
Species: Mouse, Strain/Sex: Charles River/Male (50 per group in experimental animals; 75 controls), Route: Oral, Dose: 0, 50, 2,500, 5,000 ppm in diet for 19 mo, Dose: 0, 50, 2,500, 5,000 ppm in diet for 19 mo, Tumor Site: Type of Lesion: LUNG, Pulmonary adenomas and alveolar-bronchiolar adenomas (34% in high dose group vs 17% in controls; significant), Tumor Site: Type of Lesion: LUNG, Pulmonary adenomas and alveolar-bronchiolar adenomas (34% in high dose group vs 17% in controls; significant)
  carcinogen call: active; positive (purity >99%; study details not given in source)
Species: Rat, Strain/Sex: Crl:CD SD/Female (50 per group), Route: Oral, Dose: 0, 20, 300, 600 ppm in diet for 102 wk, Dose: 0, 20, 300, 600 ppm in diet for 102 wk
  carcinogen call: inactive; negative (purity 97.7%; study details not given in source)
Species: Rat, Strain/Sex: Crl:CD SD/Male (50 per group), Route: Oral, Dose: 0, 20, 200, 400 ppm in diet for 102 wk, Dose: 0, 20, 200, 400 ppm in diet for 102 wk
  carcinogen call: inactive; negative (purity 97.7%; study details not given in source)

## CN(C)C(=O)NN=O
Species: HAMSTER, Strain/Sex: SYRIAN/FEMALE, Route: SUBCUTANEOUS, Dose: 40 MG/KG 1/WK, Tumor Site: Type of Lesion: FORESTOMACH: SQUAMOUS CELL CARCINOMA, MAMMARY GLAND: ADENOCARCINOMA OR ADENOACANTHOMA, UTERUS: ADENOACANTHOMA, Tumor Site: Type of Lesion: FORESTOMACH: SQUAMOUS CELL CARCINOMA, MAMMARY GLAND: ADENOCARCINOMA OR ADENOACANTHOMA, UTERUS: ADENOACANTHOMA
  carcinogen call: active; positive
Species: HAMSTER, Strain/Sex: SYRIAN/MALE, Route: SUBCUTANEOUS, Dose: 40 MG/KG 1/WK, Tumor Site: Type of Lesion: FORESTOMACH: SQUAMOUS CELL CARCINOMA
  carcinogen call: active; positive
Species: MOUSE, Strain/Sex: C3H/FEMALE, Route: SUBCUTANEOUS, Dose: 80 MG/KG 1/WK (TOTAL AVE DOSE 1015 MG/KG), Tumor Site: Type of Lesion: LYMPHATIC SYSTEM: MALIGNANT LYMPHOMA
  carcinogen call: active; positive
Species: MOUSE, Strain/Sex: C3H/MALE, Route: SUBCUTANEOUS, Dose: 80 MG/KG 1/WK (TOTAL AVE DOSE 1073 MG/KG), Tumor Site: Type of Lesion: LYMPHATIC SYSTEM: MALIGNANT LYMPHOMA
  carcinogen call: active; positive

## O=P(O)(O)O
Species: MOUSE, Strain/Sex: B6C3F1/FEMALE, Route: GAVAGE, Dose: 0, 500, 1000 MG/KG IN DEIONIZED WATER 5D/WK FOR 103 WK (STUDY DURATION: 105 WK), Dose: 0, 500, 1000 MG/KG IN DEIONIZED WATER 5D/WK FOR 103 WK (STUDY DURATION: 105 WK)
  carcinogen call: inactive; negative
Species: MOUSE, Strain/Sex: B6C3F1/MALE, Route: GAVAGE, Dose: 0, 500, 1000 MG/KG IN DEIONIZED WATER 5D/WK FOR 103 WK (STUDY DURATION: 105 WK), Dose: 0, 500, 1000 MG/KG IN DEIONIZED WATER 5D/WK FOR 103 WK (STUDY DURATION: 105 WK)
  carcinogen call: inactive; negative

## Cc1cccc2c(C)c3c(ccc4ccccc43)c(C)c12
Species: MOUSE, Strain/Sex: C57BL/MALE,FEMALE, Route: DERMAL, Tumor Site: Type of Lesion: INTEGUMENTARY SYSTEM (SKIN): PAPILLOMA, EPITHELIOMA, SARCOMA
  carcinogen call: active; positive
Species: MOUSE, Strain/Sex: DBA/MALE,FEMALE, Route: DERMAL, Tumor Site: Type of Lesion: INTEGUMENTARY SYSTEM (SKIN): PAPILLOMA, EPITHELIOMA, SARCOMA
  carcinogen call: active; positive
Species: MOUSE, Strain/Sex: DBF1/MALE,FEMALE, Route: DERMAL, Tumor Site: Type of Lesion: INTEGUMENTARY SYSTEM (SKIN): PAPILLOMA, EPITHELIOMA, SARCOMA
  carcinogen call: active; positive
Species: RAT, Strain/Sex: LONG-EVANS/FEMALE, Route: INTRAVENOUS, Dose: 35 MG/KG, 0.5% IN DMSO DILUTED WITH COTTONSEED OIL-WATER EMULSION, 1/2 WK OR 1/10 D FOR 3-5 DOSES, Tumor Site: Type of Lesion: HEMATOPOIETIC SYSTEM (LEUKEMIA)
  carcinogen call: active; positive
Species: RAT, Strain/Sex: LONG-EVANS/MALE, Route: INTRAMUSCULAR, Dose: 2.5 MG IN 0.5 ML SESAME OIL ONCE, Tumor Site: Type of Lesion: INJECTION SITE: SARCOMA
  carcinogen call: active; positive
Species: RAT, Strain/Sex: LONG-EVANS/MALE, Route: INTRAVENOUS, Dose: 35 MG/KG, 0.5% IN DMSO DILUTED WITH COTTONSEED OIL-WATER EMULSION, 1/2 WK FOR 4 DOSES, Tumor Site: Type of Lesion: HEMATOPOIETIC SYSTEM (LEUKEMIA)
  carcinogen call: active; positive

## Cc1cc(=O)oc2c1cc(C)c1occ(C)c12
Species: MOUSE, Strain/Sex: C3H/HEN/FEMALE, Route: DERMAL, Dose: 0, 250 UG IN 70% ETHANOL 3/WK FOR 48 WK (STUDY DURATION: 68 WK)
  carcinogen call: inactive; negative

## CC(=O)[C@H]1CC[C@H]2[C@@H]3CCC4=CC(=O)CC[C@]4(C)[C@H]3CC[C@]12C
Species: MOUSE, Route: SUBCUTANEOUS, Tumor Site: Type of Lesion: MAMMARY GLAND, OVARIES, UTERUS, Tumor Site: Type of Lesion: MAMMARY GLAND, OVARIES, UTERUS
  carcinogen call: active; positive

## CCC(=O)OCCCCCC(C)C
Species: MOUSE, Strain/Sex: C3H/MALE, Route: DERMAL, Dose: 25 µL (19% W/V IN 70:30 ACETONE/HEPTANE APPLIED TO BACK 3 D/WK FOR LIFE (STUDY DURATION: LIFE)
  carcinogen call: inactive; negative

## NCC1(CC(=O)O)CCCCC1
Species: RAT, Strain/Sex: WISTAR/FEMALE, Route: ORAL, Dose: 0, 250, 1000, 2000 MG/KG IN DIET FOR 104 WK (STUDY DURATION: 104 WK), Dose: 0, 250, 1000, 2000 MG/KG IN DIET FOR 104 WK (STUDY DURATION: 104 WK)
  carcinogen call: inactive; negative
Species: RAT, Strain/Sex: WISTAR/MALE, Route: ORAL, Dose: 0, 250, 1000, 2000 MG/KG IN DIET FOR 104 WK (STUDY DURATION: 104 WK), Dose: 0, 250, 1000, 2000 MG/KG IN DIET FOR 104 WK (STUDY DURATION: 104 WK), Tumor Site: Type of Lesion: PANCREAS: ACINAR CELL ADENOMA, ACINAR CELL CARCINOMA
  carcinogen call: active; positive

## O=[N+]([O-])c1ccc2c3c1ccc1cccc(c13)[C@@H]1O[C@H]21
Species: MOUSE, Strain/Sex: B6C3F1/FEMALE, Route: INTRAPERITONEAL, Dose: 0, 7 NMOL (TOTAL DOSE), 1/7, 2/7 AND 4/7 OF THE TOTAL DOSE ADMINISTERED WITHIN 24 HR OF BIRTH AND AT 8 AND 15 D OF AGE
  carcinogen call: inactive; negative
Species: MOUSE, Strain/Sex: B6C3F1/MALE, Route: INTRAPERITONEAL, Dose: 0, 7 NMOL (TOTAL DOSE), 1/7, 2/7 AND 4/7 OF THE TOTAL DOSE ADMINISTERED WITHIN 24 HR OF BIRTH AND AT 8 AND 15 D OF AGE
  carcinogen call: inactive; negative

## CC(O)CN(C)c1ccc(NN)nn1 (centres undefined)
Species: MOUSE, Strain/Sex: B6C3F1/MALE,FEMALE, Route: ORAL, Dose: 100, 200, 400 PPM IN DRINKING WATER FOR 80 WK, Dose: 100, 200, 400 PPM IN DRINKING WATER FOR 80 WK
  carcinogen call: inactive; negative

## O=[N+]([O-])c1ccc2ccc3c([N+](=O)[O-])c4ccccc4c4ccc1c2c34
Species: RAT, Strain/Sex: F344/MALE, Route: SUBCUTANEOUS IMPLANT, Dose: 0, 8, 40, 200, 1000 UG IN 50 µL BEESWAX/TRICAPRYLIN IMPLANTED FOR UP TO 45 WK (STUDY DURATION: 45 WK), Dose: 0, 8, 40, 200, 1000 UG IN 50 µL BEESWAX/TRICAPRYLIN IMPLANTED FOR UP TO 45 WK (STUDY DURATION: 45 WK)
  carcinogen call: inactive; negative
Species: RAT, Strain/Sex: F344/MALE, Route: SUBCUTANEOUS, Dose: 0, 8, 40, 200, 1000 UG SUSPENDED IN BEESWAX/TRICAPRYLIN (1:1) ONCE, Dose: 0, 8, 40, 200, 1000 UG SUSPENDED IN BEESWAX/TRICAPRYLIN (1:1) ONCE
  carcinogen call: inactive; negative

## CN(N=O)C(=O)NCCC[C@H](N)C(=O)O
Species: HAMSTER, Strain/Sex: SYRIAN/FEMALE, Route: INTRAPERITONEAL, Dose: 218, 654 MG/KG 1/WK FOR 12 WK (LOW DOSE) OR 6 WK (HIGH DOSE), Tumor Site: Type of Lesion: PANCREAS: CARCINOMA, CARCINOMA (IN SITU), PERITONEAL CAVITY: MESOTHELIOMA;MAMMARY GLAND: CARCINOMA, STOMACH: PAPILLOMA,, Tumor Site: Type of Lesion: PANCREAS: CARCINOMA, CARCINOMA (IN SITU), PERITONEAL CAVITY: MESOTHELIOMA;MAMMARY GLAND: CARCINOMA, STOMACH: PAPILLOMA
  carcinogen call: active; positive
Species: HAMSTER, Strain/Sex: SYRIAN/MALE, Route: INTRAPERITONEAL, Dose: 218, 654 MG/KG 1/WK FOR 12 WK (LOW DOSE) OR 6 WK (HIGH DOSE), Tumor Site: Type of Lesion: PANCREAS: CARCINOMA, CARCINOMA (IN SITU), STOMACH: PAPILLOMA
  carcinogen call: active; positive

## C/C=C1/C[C@@H](C)[C@@](C)(O)C(=O)OC/C2=C/CN(C)CC[C@@H](OC1=O)C2=O
Species: RAT, Strain/Sex: ACI/MALE, Route: INTRAPERITONEAL, Dose: 22 MG/KG IN SALINE 2/WK FOR 4 WK, THEN 1/WK FOR 52 WK, Tumor Site: Type of Lesion: LIVER: ADENOMA
  carcinogen call: active; positive
